Measured values reported in publication PMC7109250, “Cloning and Functional Characterization of Three Odorant Receptors From the Chinese Citrus fly Bactrocera minax (Diptera: Tephritidae)” (Frontiers in Physiology, 2020).

What was measured:
Type in all cases: cell-based
BminOR3 = target: T1, BminOR3 (Bactrocera minax, UniProt A0A6N0A5L8); assay: two-electrode voltage clamp in Xenopus oocytes co-expressing BminOR3/BminOrco, dose-response
T1 construct: gene OR5; full-length ORF (450 amino acid residues), GenBank MN537976; with BminOrco
T1 sequence (A0A6N0A5L8 1-451): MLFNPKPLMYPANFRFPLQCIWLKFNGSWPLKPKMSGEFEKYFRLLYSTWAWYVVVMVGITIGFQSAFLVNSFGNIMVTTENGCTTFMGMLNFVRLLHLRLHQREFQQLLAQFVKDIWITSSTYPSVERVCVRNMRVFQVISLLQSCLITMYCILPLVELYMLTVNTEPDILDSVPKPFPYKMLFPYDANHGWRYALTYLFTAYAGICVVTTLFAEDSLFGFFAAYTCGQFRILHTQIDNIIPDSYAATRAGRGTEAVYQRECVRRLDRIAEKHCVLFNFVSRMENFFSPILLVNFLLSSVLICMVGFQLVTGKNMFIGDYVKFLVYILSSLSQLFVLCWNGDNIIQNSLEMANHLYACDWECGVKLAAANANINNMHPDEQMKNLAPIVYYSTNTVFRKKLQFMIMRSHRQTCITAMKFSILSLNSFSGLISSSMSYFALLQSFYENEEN
T1 sequence (A0A3G2LEL3 1-517 partner): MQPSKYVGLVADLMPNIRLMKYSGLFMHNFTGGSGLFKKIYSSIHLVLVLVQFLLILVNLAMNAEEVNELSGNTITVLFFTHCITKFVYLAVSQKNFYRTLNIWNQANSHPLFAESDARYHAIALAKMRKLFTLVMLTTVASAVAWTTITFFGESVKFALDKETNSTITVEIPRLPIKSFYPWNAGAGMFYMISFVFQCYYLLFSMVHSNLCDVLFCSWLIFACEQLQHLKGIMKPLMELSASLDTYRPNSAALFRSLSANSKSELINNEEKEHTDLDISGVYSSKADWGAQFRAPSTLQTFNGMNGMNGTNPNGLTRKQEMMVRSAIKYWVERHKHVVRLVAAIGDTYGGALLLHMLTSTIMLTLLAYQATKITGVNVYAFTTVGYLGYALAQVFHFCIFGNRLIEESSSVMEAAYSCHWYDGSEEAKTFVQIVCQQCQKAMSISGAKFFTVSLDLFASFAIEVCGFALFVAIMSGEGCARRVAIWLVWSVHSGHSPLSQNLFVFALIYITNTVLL
Source text: two-electrode voltage clamp in Xenopus oocytes co-expressing BminOR3/BminOrco, dose-response on BminOR3 | Dose-response curve of BminOR3/BminOrco Xenopus oocytes to 1-octen-3-ol.

BminOR12 = target: T2, BminOR12 (Bactrocera minax, UniProt A0A6H1V5Y2); assay: two-electrode voltage clamp in Xenopus oocytes, mean current at […]
T2 construct: gene OR12; full-length ORF (415 amino acid residues), GenBank MN855530; with BminOrco
T2 sequence (A0A6H1V5Y2 1-415): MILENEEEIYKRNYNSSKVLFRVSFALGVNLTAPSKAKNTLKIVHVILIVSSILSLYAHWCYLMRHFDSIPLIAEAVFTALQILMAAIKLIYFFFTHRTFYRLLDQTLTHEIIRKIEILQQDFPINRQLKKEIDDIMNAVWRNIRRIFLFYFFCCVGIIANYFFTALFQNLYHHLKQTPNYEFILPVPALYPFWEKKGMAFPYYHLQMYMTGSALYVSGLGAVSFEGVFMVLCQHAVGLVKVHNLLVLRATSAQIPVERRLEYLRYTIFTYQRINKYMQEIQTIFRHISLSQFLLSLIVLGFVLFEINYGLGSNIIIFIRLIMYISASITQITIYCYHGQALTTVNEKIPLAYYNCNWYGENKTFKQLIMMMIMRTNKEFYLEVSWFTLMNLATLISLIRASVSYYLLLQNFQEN
T2 sequence (A0A3G2LEL3 1-517 partner): T1 sequence (A0A3G2LEL3 1-517 partner)
Source text: The respective mean response values of these are | BminOR12/BminOrco responded to eight compounds: benzyl alcohol, (S)-(+)-carvone, 1-octanol, butyl propionate, butyl acrylate

BminOR16 = target: T3, BminOR16 (Bactrocera minax, UniProt A0A6N0A5X5); assay: as above
T3 construct: gene OR16; full-length ORF (404 amino acid residues), GenBank MN537977; with BminOrco
T3 sequence (A0A6N0A5X5 1-405): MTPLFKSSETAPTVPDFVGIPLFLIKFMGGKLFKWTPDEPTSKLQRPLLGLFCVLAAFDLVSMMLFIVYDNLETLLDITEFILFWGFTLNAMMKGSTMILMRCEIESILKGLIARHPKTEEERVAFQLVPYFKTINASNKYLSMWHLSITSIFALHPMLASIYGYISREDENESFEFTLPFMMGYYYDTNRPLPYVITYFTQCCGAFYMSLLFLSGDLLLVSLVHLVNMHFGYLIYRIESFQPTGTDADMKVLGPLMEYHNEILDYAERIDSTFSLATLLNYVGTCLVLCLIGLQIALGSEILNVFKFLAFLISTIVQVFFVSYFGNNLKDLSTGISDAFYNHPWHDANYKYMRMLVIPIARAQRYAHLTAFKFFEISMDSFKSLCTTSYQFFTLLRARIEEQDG
T3 sequence (A0A3G2LEL3 1-517 partner): T1 sequence (A0A3G2LEL3 1-517 partner)

SMILES | two-electrode voltage clamp in Xenopus oocytes, mean current at 10^-4 M (BminOR12) [nA] | further results
C=CC(O)CCCCC (stereo not shown) [compound 2, 1-octen-3-ol] | – | EC50 (BminOR3): 347 nM
O=Cc1ccccc1 [compound 9, benzaldehyde] | 94 | –
COC(=O)c1ccccc1O [compound 10, methyl salicylate] | 138 | –
C=C(C)[C@H]1CC=C(C)C(=O)C1 [compound 15, (S)-(+)-carvone] | 34 | –
OCc1ccccc1 [compound 16, benzyl alcohol] | 33 | –
CCCCOC(=O)CC [compound 31, butyl propionate] | 60 | –
CCCCCCCCCCCO [compound 35, undecanol] | – | two-electrode voltage clamp in Xenopus oocytes, mean current at 10^-4 M (BminOR16): 87 nA
CCCCCCCCO [compound 37, 1-octanol] | 46 | –
C=CC(=O)OCCCC [compound 40, butyl acrylate] | 63 | –
CC/C=C\CCOC(C)=O [compound 43, (Z)-3-hexenyl acetate] | 91 | –
